From US9340554B2, “IRAK inhibitors and uses thereof” (Nimbus Iris, Inc., priority 2011, dated 2016)

Molecular target: T1, IRAK4 (Homo sapiens, UniProt Q9NWZ3)
T1 construct: purchased CARNA Bioscience 09-145
T1 sequence (Q9NWZ3 1-460): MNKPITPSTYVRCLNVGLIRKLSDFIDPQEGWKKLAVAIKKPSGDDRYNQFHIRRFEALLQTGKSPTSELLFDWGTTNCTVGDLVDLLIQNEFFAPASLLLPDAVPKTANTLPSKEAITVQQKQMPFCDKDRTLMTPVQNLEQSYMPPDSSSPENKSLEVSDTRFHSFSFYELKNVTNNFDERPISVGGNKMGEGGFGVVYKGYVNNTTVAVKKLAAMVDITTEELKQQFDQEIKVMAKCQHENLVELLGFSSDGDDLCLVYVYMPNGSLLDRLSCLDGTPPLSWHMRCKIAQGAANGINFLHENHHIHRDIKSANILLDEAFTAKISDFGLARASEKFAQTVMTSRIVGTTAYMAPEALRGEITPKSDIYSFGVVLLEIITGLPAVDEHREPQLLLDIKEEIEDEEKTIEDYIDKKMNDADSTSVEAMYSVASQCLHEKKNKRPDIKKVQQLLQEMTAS
Test: IRAK-4 activity inhibition assay (Caliper, Peptide 8, 37 μM ATP)
Assay type: biochemical
Settings: 3.5 nM IRAK4, 1.5 μM Peptide 8, 37 μM ATP, 28° C. 40 minutes; read-out: IRAK-4 activity inhibition IC50
Experimental: A 1× kinase base buffer was prepared from 50 mM HEPES, pH 7.5 and 0.0015% Brij-35. A stop buffer was prepared from 100 mM HEPES, pH 7.5, 0.015% Brij-35, 0.2% Coating Reagent #3, and 50 mM EDTA.
Test compound was diluted to 50× of the final desired highest inhibitor concentration in reaction by 100% DMSO. 100 ul of this compound dilution was transferred to a well in a 96-well plate.
Test compound was serially diluted by transferring 30 μl to 60 μl of 100% DMSO in the next well and so forth for a total of 10 concentrations. 100 μl of 100% DMSO was added to two empty wells for no compound control and no enzyme control in the same 96-well plate.
A new 96-well plate was marked as intermediate plate. 5 μl of compound serial dilution was transferred from source plate to the corresponding wells of the intermediate plate. 45 μl of 1× kinase base buffer (KB buffer) was added to each well of the intermediate plate. The intermediate plate was placed for 10 min on a shaker.
5 μl of each well was transferred from the 96-well intermediate plate to a 384-well plate in duplicates. […] A2 of the 96-well plate is transferred to A3 and A4 of the 384-well plate, and so on.
IRAK4 and DTT in 1× kinase base buffer was added.
Assay plate already contained 5 μl of compound in 10% DMSO. Added 10 μl of 2.5× enzyme solution to each well of the 384-well assay plate, except no enzyme control wells. […] Added 10 μl of 1× kinase base buffer to no enzyme control wells in the assay plate. Incubated at room temperature for 10 min.
Added 10 μl of 2.5× peptide solution to each well of the 384-well assay plate. […] Incubated at 28° C. for 40 minutes. Added 25 μl of stop buffer to stop reaction. Collected data on Caliper.
Copied conversion % data from Caliper program. Converted conversion % values to percent inhibition values. Percent inhibition=(max−conversion %)/(max−min)*100, where “max” means the conversion % of DMSO control and “min” means the conversion % of no enzyme control.
The compound numbers correspond to the compound numbers in Table 1. […] “NA” stands for “not assayed.”

IC50 [µM]	Compound
5 to 20	OC1CCCC(Nc2ncnc3sc4c(c23)CCC4)C1 (mixture of isomers) [Compound I-15, 3-((6,7-dihydro-5H-cyclopenta[4,5]thieno[2,3-d]pyrimidin-4-yl)amino)cyclohexanol]
5 to 20	CC1CCc2sc3ncnc(NC4CCCC(O)C4)c3c2C1 (mixture of isomers) [Compound I-35, 3-((6-methyl-5,6,7,8-tetrahydrobenzo[4,5]thieno[2,3-d]pyrimidin-4-yl)amino)cyclohexanol]
5 to 20	O[C@@H]1CCC[C@H](Nc2ncnc3sc4c(c23)CCC4)C1 (relative stereo) [Compound I-21, cis-3-((6,7-dihydro-5H-cyclopenta[4,5]thieno[2,3-d]pyrimidin-4-yl)amino)cyclohexanol]
5 to 20	O[C@H]1CCC[C@H](Nc2ncnc3sc4c(c23)CCC4)C1 (relative stereo) [Compound I-22, trans-3-((6,7-dihydro-5H-cyclopenta[4,5]thieno[2,3-d]pyrimidin-4-yl)amino)cyclohexanol]
5 to 20	CC1CCc2sc3ncnc(N[C@H]4CC[C@H](O)CC4)c3c2C1 (relative stereo) [Compound I-37, trans-4-((6-methyl-5,6,7,8-tetrahydrobenzo[4,5]thieno[2,3-d]pyrimidin-4-yl)amino)cyclohexanol]
5 to 20	NC(=O)C1CCN(c2ncnc3sc4c(c23)CCCC4)CC1 [Compound I-1]
20 to 50	NC(=O)C1CCN(c2ncnc3sc4c(c23)CCCC4)CC1 [Compound I-2]
5 to 20	CC1CCc2c(sc3ncnc(N4CCC(C(N)=O)CC4)c23)C1 (centres unmarked) [Compound I-3]
5 to 20	O[C@H]1CC[C@H](Nc2ncnc3sc4c(c23)CCCC4)CC1 [Compound I-4, trans-4-((5,6,7,8-tetrahydrobenzo[4,5]thieno[2,3-d]pyrimidin-4-yl)amino)cyclohexanol]
< 5	OC1CCCC(Nc2ncnc3sc4c(c23)CCCC4)C1 (centres unmarked) [Compound I-5, 3-((5,6,7,8-tetrahydrobenzo[4,5]thieno[2,3-d]pyrimidin-4-yl)amino)cyclohexanol]
20 to 50	O=C(O)[C@@H]1CC[C@H](Nc2ncnc3sc4c(c23)CCC4)C1 [Compound I-6]
5 to 20	O[C@H]1CC[C@H](Nc2ncnc3sc4c(c23)CCC4)CC1 [Compound I-7, trans-4-((6,7-dihydro-5H-cyclopenta[4,5]thieno[2,3-d]pyrimidin-4-yl)amino)cyclohexanol]
20 to 50	c1nc(NC2CCOCC2)c2c3c(sc2n1)CCC3 [Compound I-8]
20 to 50	NC1CCN(c2ncnc3sc4c(c23)CCC4)CC1 [Compound I-9]
< 5	N[C@H]1CC[C@H](Nc2ncnc3sc4c(c23)CCC4)CC1 [Compound I-10, trans-N^1-(6,7-dihydro-5H-cyclopenta[4,5]thieno[2,3-d]pyrimidin-4-yl)cyclohexane-1,4-diamine]
5 to 20	CC(=O)N[C@H]1CC[C@H](Nc2ncnc3sc4c(c23)CCC4)CC1 [Compound I-11, N-(trans-4-((6,7-dihydro-5H-cyclopenta[4,5]thieno[2,3-d]pyrimidin-4-yl)amino)cyclohexyl)acetamide]
5 to 20	CCC1CCc2c(sc3ncnc(N4CCC(C(=O)NC)CC4)c23)C1 (centres unmarked) [Compound I-13]
< 5	CCC1CCc2c(sc3ncnc(N4CCC(C(=O)NO)CC4)c23)C1 (centres unmarked) [Compound I-14]
5 to 20	CCC1CCc2c(sc3ncnc(N4CCN(C)CC4)c23)C1 (centres unmarked) [Compound I-16]
5 to 20	CCC1CCc2c(sc3ncnc(N4CCC(C(N)=O)CC4)c23)C1 (centres unmarked) [Compound I-17]
20 to 50	Cc1sc2ncnc(N3CCC(C(N)=O)CC3)c2c1C [Compound I-18]
5 to 20	Cc1sc2ncnc(N[C@H]3CC[C@H](O)CC3)c2c1C [Compound I-19, trans-4-((5,6-dimethylthieno[2,3-d]pyrimidin-4-yl)amino)cyclohexanol]

IC50 [µM]	Compound
20 to 50	CCC1CCc2c(sc3ncnc(NC4CCN(Cc5ccccc5)CC4)c23)C1 (centres unmarked) [Compound I-20]
20 to 50	CC1CCc2c(sc3ncnc(N4CCN(S(=O)(=O)c5ccc(C(C)(C)C)cc5)CC4)c23)C1 (centres unmarked) [Compound I-23]
> 50	CCC(C)c1ccc(S(=O)(=O)N2CCN(c3ncnc4sc5c(c34)CCC(C)C5)CC2)cc1 (centres unmarked) [Compound I-24]
5 to 20	Cc1sc2ncnc(N3CCC(C(=O)NCc4ccc(S(N)(=O)=O)cc4)CC3)c2c1C [Compound I-25]
5 to 20	COc1ccc(OCCN2CCN(c3ncnc4sc5c(c34)CCCC5)CC2)cc1 [Compound I-27]
5 to 20	CC1CCc2c(sc3ncnc(N4CCC5(CC4)NC(=O)NC5=O)c23)C1 (centres unmarked) [Compound I-28]
5 to 20	Cc1sc2ncnc(N3CCC(C(=O)NCCc4nnc5ccccn45)CC3)c2c1C [Compound I-29]
> 50	CCOc1ccccc1N1CCN(c2ncnc3sc4c(c23)CCC4)CC1 [Compound I-30]
5 to 20	Cc1sc2ncnc(N3CCC(C(=O)Nc4cc(Cl)ccc4Cl)CC3)c2c1C [Compound I-32]
20 to 50	O=C(NCC(F)(F)F)C1CCN(c2ncnc3sc4c(c23)CCC4)CC1 [Compound I-33]
< 5	CN[C@H]1CC[C@H](Nc2ncnc3sc4c(c23)CCC4)CC1 [Compound I-34, trans-N^1-(6,7-dihydro-5H-cyclopenta[4,5]thieno[2,3-d]pyrimidin-4-yl)-N^4-methylcyclohexane-1,4-diamine]
5 to 20	CC1CCc2sc3ncnc(N4CCC(C(N)=O)CC4)c3c2C1 (centres unmarked) [Compound I-36]
< 5	CC1(C)CCc2sc3ncnc(N[C@H]4CC[C@H](N)CC4)c3c2C1 [Compound I-38, trans-N^1-(6,6-dimethyl-5,6,7,8-tetrahydrobenzo[4,5]thieno[2,3-d]pyrimidin-4-yl)cyclohexane-1,4-diamine]
< 5	CCC1CCc2c(sc3ncnc(N[C@H]4CC[C@H](N)CC4)c23)C1 (stereo partly drawn) [Compound I-39, trans-N^1-(7-ethyl-5,6,7,8-tetrahydrobenzo[4,5]thieno[2,3-d]pyrimidin-4-yl)cyclohexane-1,4-diamine]
< 5	CN(C)[C@H]1CC[C@H](Nc2ncnc3sc4c(c23)CC(C)(C)CC4)CC1 [Compound I-40, trans-N^1-(6,6-dimethyl-5,6,7,8-tetrahydrobenzo[4,5]thieno[2,3-d]pyrimidin-4-yl)-N^4,N^4-dimethylcyclohexane-1,4-diamine]
< 5	CN[C@H]1CC[C@H](Nc2ncnc3sc4c(c23)CC(C)(C)CC4)CC1 [Compound I-41, trans-N^1-(6,6-dimethyl-5,6,7,8-tetrahydrobenzo[4,5]thieno[2,3-d]pyrimidin-4-yl)-N^4-methylcyclohexane-1,4-diamine]
5 to 20	CC1(C)CCc2sc3ncnc(N[C@H]4CC[C@H](O)CC4)c3c2C1 [Compound I-43, trans-4-((6,6-dimethyl-5,6,7,8-tetrahydrobenzo[4,5]thieno[2,3-d]pyrimidin-4-yl)amino)cyclohexanol]
< 5	CN[C@H]1CC[C@H](Nc2ncnc3sc(C)c(C)c23)CC1 [Compound I-44, trans-N^1-(5,6-dimethylthieno[2,3-d]pyrimidin-4-yl)-N^4-methylcyclohexane-1,4-diamine]
5 to 20	C[C@@H]1CCc2sc3ncnc(N4CCC(C(N)=O)CC4)c3c2C1 [Compound I-45]
20 to 50	CC1(C)CCc2sc3ncnc(N4CCC(C(N)=O)CC4)c3c2C1 [Compound I-46]
5 to 20	C[C@@H]1CCc2sc3ncnc(N[C@H]4CC[C@H](O)CC4)c3c2C1 [Compound I-47, trans-4-(((R)-6-methyl-5,6,7,8-tetrahydrobenzo[4,5]thieno[2,3-d]pyrimidin-4-yl)amino)cyclohexanol]

Compound	IC50 [µM]
Cc1sc2ncnc(N3CCC(C(=O)Nc4ccc(C#N)c(Cl)c4)CC3)c2c1C [Compound I-31]	5 to 20
